The results in this text go back to patent publication US20030207813A1, “Retroviral protease inhibitor combinations” (priority 1995, published 2003).

Converted amounts (≈) assume the structure as drawn. Read-outs that look alike come from different tables or passages of the source.

One experiment has as its system HIV-1RF. Description: CEM-T4 cell infection assay, reverse transcriptase readout, isolate RF. Type of experiment: cell-based. The following applies: Human immunodeficiency virus 1, CEM-T4, 168 h, 7 days, read-out: Virus Isolate (EC50 ng/mL) RF. The source says: (§1) RF represents the HIV-1 strain HIV-LRF and RFR represents a mixture of resistant strains obtained by selection of RF against the compound of Example 1. RFR comprises a mixture of viral strains having protease genotypes of G48V (14/40 clones); G48V, V82A (18/40 clones); G48V, L90S (2/40 clones); G48V, 154T, V82A (1/40 clones); G48M (1/40 clones); G48V, Q61H (1/40 clones); V13I, G48V (1/40 clones); G48V, F53L, V82A (1/40 clones); and G48V, V82A, C95Y (1/40 clones). RFR2 represents a mixture of resistant strains obtained by cloning RFR by three rounds of growth at limiting dilution. RFR2 comprises a mixture of viral strains having protease genotypes of G48V, V82A (13/15 clones); G17E, G48V, V82A (1/15 clones); and G48V, V82A, N37D, N88D (1/15 clones). RFRR represents a mixture of resistant strains obtained by selection of RF against the compounds of Examples 1 and 2 and then cloning by three rounds of growth at limiting dilution. RFRR comprises a mixture of viral strains having protease genotypes of G48V, 154T, L63P, V82A (7/9 clones); G48V, 154T, L63P, V82A, N88S (1/9 clones); and G48V, 154T, L63P, G73M, V82A (1/9 clones). SF162 represents the HIV-1 strain SF-162 and SF162R represents a mixture of resistant strains obtained by selection of SF162 against the compound of Example 1. SF162R comprises a mixture of viral strains having protease genotypes of M461, F53L, L63P, A71V, N88D (2/3 clones); and M46I, F53L, L63P, A71V, N88D, Q92R (1/3 clones). 89-959 represents the HIV-1 strain 89-959 and 89-959R represents a mixture of resistant strains obtained by selection of 89-959 against the compound of Example 2. 89-959R comprises a mixture of viral strains having protease genotypes of N88S (4/5 clones); and D25N, T26A, D30N, D37N, R41K, G73D, R87K, N88S (1/4 clones). NL4 represents the HIV-1 strain HIV-1NL4-3. NL4(G48V) represents a strain having a synthetically generated site-directed mutation in the protease from glycine to valine at amino acid position number 48. NL4(I84V) represents a strain having a synthetically generated site-directed mutation in the protease from isoleucine to valine at amino acid position number 84. NL4(R8Q,M46I) represents a strain having synthetically generated site-directed mutations in the protease from arginine to glutamine at amino acid position number 8 and methionine to isoleucine at amino acid position number 46. NL4(P22-538) represents a mixture of resistant strains obtained by selection of HIV-1NL4-3 against the compound of Example 10 after 22 passages comprising protease genotypes M46I, L63P, A71V, V82F, I84V (4/10); M46I, L63P, V82F, I84V (3/10); and M46I, A71V, V82F, I84V (3/10). NL4(P37-538) represents resistant strains obtained by selection of HIV-1NL4-3 against the compound of Example 10 after 37 passages comprising protease genotype M46I, L63P, A71V, 184A. NL4(538/524) represents resistant strains obtained by selection of NL4(P22-538) against the compound of Example 5 after 24 passages comprising protease genotype M46I, L63P, A71V, 184A. NL4(538/P7-AG) represents a mixture of resistant strains obtained by selection of NL4(P22-538) against the compound of Example 12 after 7 passages comprising protease genotypes M46I, L63P, A71V, 184A; and V321, V82I. NL4(538/P24-AG) represents resistant strains obtained by selection of NL4(P22-538) against the compound of Example 12 after 24 passages comprising protease genotype M46I, L63P, A71V, 184A. NLA(P19-003) represents resistant strains obtained by selection of HIV-1^NL4-3 against the compound of Example 9 after 19 passages comprising protease genotype R8K, M46I. NL4(P34-003) represents resistant strains obtained by selection of HIV-1^NL4-3 against the compound of Example 9 after 34 passages comprising protease genotype R8K, M46I, L63P, A71V, L90M.
(§2) The viral isolate resistance results summarized in Tables 4-6 were generated according to the following assay procedure or minor modifications thereof. Assays are performed in 96-well tissue culture plates. […]

Experiment [1] has as its system RFR (resistant strains selected from RF against Example 1). Description: CEM-T4 cell infection assay, reverse transcriptase readout, resistant isolate RFR. Type of experiment: cell-based, HIV-1. The following applies: Human immunodeficiency virus 1, CEM-T4, 168 h, 7 days, read-out: Virus Isolate (EC50 ng/mL) RFR.
Description: as §1, §2

As for `CC(C)CN(C[C@@H](O)[C@H](Cc1ccccc1)NC(=O)[C@H](CC(N)=O)NC(=O)c1ccc2ccccc2n1)C(=O)NC(C)(C)C` (relative stereo) [Example 1, [1S-[1R*(R*),2S*]]-N^1-[3-[[[(1,1-dimethylethyl)amino]carbonyl])2-methylpropyl)amino]-2-hydroxy-1-(phenylmethyl)propyl]-2-[(2-quinolinylcarbonyl)amino]-butanediamide], the EC50 is 30 ng/mL (≈ 0.0496 µM) with HIV-1RF (Table 4, CEM-T4 cells); 24 ng/mL (≈ 0.0397 µM) in the experiment with HIV-1RF (Table 5, CEM-T4 cells); 19 ng/mL (≈ 0.0314 µM) in the experiment on HIV-1RF (Table 6, CEM-T4 cells); 223 ng/mL (≈ 0.369 µM) in experiment [1] (Table 4, CEM-T4 cells); 394 ng/mL (≈ 0.652 µM) in experiment [1] (Table 5, CEM-T4 cells).

Take `CC(C)CCN(C[C@@H](O)[C@H](Cc1ccccc1)NC(=O)[C@H](CC(N)=O)NC(=O)c1ccc2ccccc2n1)C(=O)NC(C)(C)C` (relative stereo) [Example 7, [1S-[1R*(R*),2S*]]-N^1-[3-[[[(1,1-dimethylethyl)amino]carbonyl](3-methylbutyl)amino]-2-hydroxy-1-(phenylmethyl)propyl]-2-[(2-quinolinylcarbonyl)amino]-butanediamide]: the EC50 was 2 ng/mL (≈ 0.00323 µM) with HIV-1RF (Table 5, CEM-T4 cells) and 78 ng/mL (≈ 0.126 µM) in experiment [1] (Table 5, CEM-T4 cells).

Consider `CC(C)(C)NC(=O)[C@@H]1CC2CCCC[C@@H]2CN1C[C@@H](O)[C@H](Cc1ccccc1)NC(=O)[C@H](CC(N)=O)NC(=O)c1ccc2ccccc2n1` (stereo in doubt) [Example 6, N-tert-Butyl decahydro-2-[2(R)-hydroxy-4-phenyl-3(S)-[[N-(2-quinolylcarbonyl)-L-asparaginyl]amino]butyl]-(4aR,8aS)-isoquinoline-3(S)-carboxamide], for which the EC50 with HIV-1RF (Table 4, CEM-T4 cells) was found to be 12 ng/mL (≈ 0.0179 µM); in the experiment with HIV-1RF (Table 6, CEM-T4 cells), 6 ng/mL (≈ 0.00894 µM); in experiment [1] (Table 4, CEM-T4 cells) it was 15 ng/mL (≈ 0.0224 µM).

With `CNCC(=O)N[C@H](C(=O)N[C@@H](Cc1ccccc1)[C@H](O)CN(CCC(C)C)C(=O)NC(C)(C)C)C(C)(C)C` [Example 2, (2R,3S)-3-(N-methylaminoacetyl-L-tert-butylglycinyl)amino-1-(N-isoamyl-N-(tert-butylcarbamoyl))amino-4-phenyl-2-butanol], the EC50 is 40 ng/mL (≈ 0.0749 µM) with HIV-1RF (Table 4, CEM-T4 cells); 35 ng/mL (≈ 0.0656 µM) in the experiment with HIV-1RF (Table 6, CEM-T4 cells); 8 ng/mL (≈ 0.015 µM) in experiment [1] (Table 4, CEM-T4 cells).

As for `CC(C)(C)NC(=O)[C@@H]1CN(Cc2cccnc2)CCN1C[C@@H](O)C[C@@H](Cc1ccccc1)C(=O)N[C@H]1c2ccccc2C[C@H]1O` [Example 5, N-(2(R)-Hydroxy-1(S)-indanyl)-2(R)-phenylmethyl-4(S)-hydroxy-5-(1-(4-(3-pyridylmethyl)-2(S)-N′-(t-butylcarboxamido)-piperazinyl))-pentaneamide], the EC50 with HIV-1RF (Table 4, CEM-T4 cells) is 44 ng/mL (≈ 0.0717 µM); in the experiment on HIV-1RF (Table 6, CEM-T4 cells) it was 6 ng/mL (≈ 0.00978 µM); in experiment [1] (Table 4, CEM-T4 cells), 7 ng/mL (≈ 0.0114 µM).

In the case of `CC(C)CN(C[C@@H](O)[C@H](Cc1ccccc1)NC(=O)[C@H](CC(N)=O)NC(=O)c1ccc2ccccc2n1)S(=O)(=O)NC(C)(C)C` [Example 8, N-[3-[N^2-[N^1-(1,1-dimethylethyl)aminosulfonyl]-N^2-(2-methylpropyl)amino]-2R-hydroxy-1S-(phenylmethyl)propyl]-2S-[(2-quinolinylcarbonyl)amino]butanediamide], the EC50 in the experiment on HIV-1RF (Table 5, CEM-T4 cells) was 2 ng/mL (≈ 0.00312 µM); in experiment [1] (Table 5, CEM-T4 cells), 1 ng/mL (≈ 0.00156 µM).
